How the values were obtained:
Assay type in all cases: cell-based
[1] = test system: Ramos cells with BTK WT; experiment: Phosphor-BTK(Y223) assay, suspended cells; conditions: phosphorylated BTK Y223, Ramos cells with BTK WT
Method: (§1) The purpose of this assay was to simply, quickly and directly detect the level of endogenous BTK phosphorylation in cells.
The steps for handling suspended cells were as follows: • 1) Ramos cells with BTK WT (2.5 k/well), BTK C481S (2.5 k/well), or BTK T474I (2.5 k/well) were plated in a 96-well plate, respectively. A compound of different concentration gradients was added using Tecan D300e, and the plate was incubated at 37 °C and 5% CO2 for 2 hours. • 2) 8.33 µL of 20 mM Na3VO4 was added to bring the final concentration to 5 mM, and the plate was incubated at 37 °C and 5% CO2 for 3 h. • 3) During the incubation, the following reagents were prepared: • 4x added lysis buffer: 24 vol 4x lysis buffer + 1 vol 25x blocking reagent. • p-BTK (Y223) cryptate-antibody and p-BTK (Y223) d2-antibody working solutions: 1 volume of each cryopreserved antibody (stored at - 20 °C) was added to 38 times the volume of assay buffer (stored at 4 °C), and mixed well. • 4) After the incubation was completed, 11.1 µL of 4x added lysis buffer was directly added. The plate was shaken at 800 rpm at room temperature for 30 min. • 5) The lysate was mixed well and 16 µL of it was transferred to a 384-well plate. 1 × added lysis buffer was used as a blank control. • 6) 4 µL of pre-mixed working solutions of the two antibodies (cryptate Ab:d2 Ab = 1:1) was added, and the plate was sealed. • 7) The plate was incubated at room temperature overnight. • 8) The plate was read at 665nm and 620nm using Biotek cytation3.0 microplate reader, and the ratio of 665/620nm of each well was calculated. Data analysis: IC50 was calculated using GraphPad Prism 7.0 software.
(§2) The IC50 (half-maximal phosphorylation inhibitory concentration) of the phosphorylated BTK Y223 of the compound was obtained using the following nonlinear fitting formula: Y = Bottom + (Top−Bottom)/(1+10^(∧)((LogIC50−X)*HillSlope)) [formula] • X: Log value of the compound concentration • Y: Inhibition rate (% inhibition) • Top: Maximum response • Bottom: Baseline response • HillSlope: Slope of the curve
(§3) The formula for calculating cell phosphorylation inhibition rate (inhibition rate %) was: Inhibition rate% = 1−(eachconcentrationwell-blankwell)/(positivecontrolwell−blankwell) [formula]

[2] = test system: NIH/3T3 BTK C481S cells; experiment: Phosphor-BTK(Y223) assay, adherent cells; conditions: phosphorylated BTK Y223, NIH/3T3 BTK C481S cells; read-out: NIH/3T3 BTK-C481S pBTK
Method: as §1
(§4) The steps for handling adherent cells were as follows: • 1) NIH/3T3 BTK WT cells (7.5 k/well) and NIH/3T3 BTK C481S cells (10 k/well) were plated in a 96-well plate, respectively, and cultured at 37 °C and 5% CO2 overnight. • 2) A 3-fold final concentration gradient dilution of a compound was prepared, and 50 µL of it was taken and added to 100 µL of cell culture. 0.5% DMSO was used as a positive control for cell growth. • 3) The plate was incubated at 37 °C and 5% CO2 for 0.5 h. • 4) Na3VO4 at a final concentration of 1mM was added, and the plate was incubated at 37 °C and 5% CO2 for 2 hours. • 5) During the incubation, the following reagents were prepared: • 1x added lysis buffer: 3 vol ddH2O + 1 vol 4x lysis buffer + 100x blocking reagent. • p-BTK (Y223) cryptate-antibody and p-BTK (Y223) d2-antibody working solutions: 1 volume of each cryopreserved antibody (stored at - 20 °C) was added to 19 times the volume of assay buffer (stored at 4 °C). • 6) After the incubation was completed, the medium was removed and 50 µL of 1x added lysis buffer was added. The plate was centrifuged at 500 rpm at room temperature for 30 min. • 7) The lysate was mixed well and 16 µL of it was transferred to a 384-well plate. 1 × added lysis buffer was used as a blank control. • 8) 4 µL of pre-mixed working solutions of the two antibodies (cryptate Ab:d2 Ab = 1:1) was added, and the plate was sealed. • 9) The plate was incubated at room temperature overnight. 10) The plate was read at 665nm and 620nm using Biotek cytation3.0 microplate reader, and the ratio of 665/620nm of each well was calculated.
as §2, §3

[3] = test system: NIH/3T3 BTK WT cells; experiment: Phosphor-BTK(Y223) assay, adherent cells; conditions: phosphorylated BTK Y223, NIH/3T3 BTK WT cells; read-out: NIH/3T3 BTK-WT pBTK
Method: as §1, §4, §2, §3

Measured: IC50

N-(4-(3-amino-7-(1,7-naphthyridin-2-yl)-1H-pyrazolo[4,3-c]pyridin-4-yl)benzyl)-5-fluoro-2-methoxybenzamide [Example 49]
> 50 nM: all assays above

Source: patent EP4741392A1, “1H-PYRAZOLO[4,3-C]PYRIDINE COMPOUND, AND COMPOSITION THEREOF AND USE THEREOF” (Shenzhen TargetRx Co., Ltd., priority 2023, dated 2025)
